Data on two compounds can be found in patent US10420758B2, “Indolinyl-sulfonamide inhibitors of tankyrase and methods of use thereof” (The Board of Regents of the University of Texas System, priority 2015, dated 2019).

The test system of the test is Dvl2. The test can be described thus: Ligand-dependent phosphorylation of Dvl2. In kind it is cell-based, human. To be noted: HeLa cells, FIG. 4E. The source says: FIGS. 4A-4F show Tnks inhibitors induce telomeric stress in human cells independently of Wnt/β-catenin pathway inhibition. (FIG. 4A) Porcn inhibitors afford a Tnks-independent approach to disrupting Wnt/β-catenin signaling. Chemicals targeting the Wnt acyltransferase Porcn abrogate Wnt palmitoylation which in turn results in loss of activity of the Frizzled (Fzd) family of Wnt receptors. Fzd receptors directly induce activation of the cytoplasmic signaling molecule Dishevelled (Dvl) in a ligand-dependent manner, which in turn results in activation of β-catenin and transcription mediated by the TCF family of DNA binding proteins. IWP-2 and the clinical candidate LGK-974 represent two structurally distinct Porcn inhibitors. (FIG. 4B) Tnks but not Porcn inhibitors induce DNA damage at telomeres. The appearance of co-localized Terf2 and pH2A.X (an indicator of DNA damage at the telomere ends; Telomere Induced Foci or TIFs) was scored using indirect immunofluorescence in Hela cells (expressing wild-type Apc protein). (FIG. 4C) Quantification of results represented in “B”. Cells with >5 TIFs were scored as positive for telomeric damage (left bars). Mean total phosphorylated H2A.X (γ H2A.X) was used to measure general DNA damage responses (right bars). […] Digital droplet-based telomerase extension analysis of genomic DNA isolated from HeLa cells treated for 24 hrs with indicated compounds. […]

Consider `Cc1ccc2nc(NC(=O)CSc3nc4c(c(=O)n3-c3ccccc3)SCC4)sc2c1` [IWP-2], for which the “ligand-dependent phosphorylation of Dvl2” value is on record as “block ligand-dependent phosphorylation of Dvl2”.

`Cc1cc(-c2ncc(CC(=O)Nc3ccc(-c4cnccn4)cn3)cc2C)ccn1` [LGK-974]: the “ligand-dependent phosphorylation of Dvl2” value is “block ligand-dependent phosphorylation of Dvl2”.
